Results reported in patent US6911435B1 (Can-Fite Biopharma Ltd., priority 1997, dated 2005).

Legend:
[1] = test system: IL-12; assay: IL-12 production by peripheral blood mononuclear cells; type: cell-based, human; conditions: 4 μM adenosine
Experimental: Mononuclear cells (MNC) were fractionated from heparinized blood of 10 healthy volunteers using Ficoll-Hypaque gradient. […] At the end of the incubation period the supernatant was collected, centrifuged and filtered through 0.22μ sterile filter and kept at −70° C. until assayed. The level of IL-12 in the supernatants was analyzed using a commercial kit of R&D System.

[2] = test system: NK cells; assay: NK activity of splenocytes from adenosine treated mice, Yac targets; type: in vivo, ICR mice; conditions: 5 consecutive days 10 μM adenosine; two effector:target ratios; FIG. 8
[3] = test system: white blood cells; assay: Example 2 in vivo: white blood cell count after adenosine and/or cyclophosphamide; design: species or system C57BL6/J mice; conditions: i.p.
Experimental: (§1) On day 6 the mice were injected intraperitoneally with 1 ml saline. • 4. chemotherapy group: daily injection of 1 ml saline for 5 consecutive days. On day 6 the mice were injected intraperitoneally with cyclophosphamide.
[…] Proliferation capacity of bone marrow: bone marrow was aspirated from the femur and pooled for each tested group. The cells were separated, counted and the proliferative capacity was evaluated by the [^3H]-Thymidine incorporation assay as described above.

[4] = test system: normal cells (bone marrow cells, fibroblasts, L-8 myoblast); assay: [3H]-Thymidine incorporation assay, normal cells; type: cell-based, mice, rat; conditions: adenosine 4 μM, FIG. 2
Experimental: As a control for tumor proliferating cells, two normal proliferating cell types were used i.e., bone marrow cells derived from the femur of C57BL/6J mice; fibroblasts derived from primary cultures of newborn rat skeletal muscle cells. The cells were prepared as previously, (Djaldetti, M., Sredni, B., Zigelman, R., Verber, M., and Fishman, P. Muscle cells produce a low molecular weight factor with anti-cancer activity. Clin. Exp. Matastasis, 14:189-196, 1996). Also used was the L-8 myoblast rat cell line which was purchased from the ATCC.
(§2) During the last 6 hours of incubation, each well was pulsed with 1 μCi[^3H]-Thymidine. The cells were harvested and the [^3H]-Thymidine uptake was determined in an LKB liquid scintillation counter (LKB, Piscataway, N.J., USA).

[5] = test system: white blood cells; assay: Example 5 in vivo: white blood cell count and percentage of granulocytes; design: species or system C57BL6/J mice
Experimental: 50 C57BL6/J mice were divided into 5 groups of 10 mice each, which were treated by intraperitoneal injection with one of the following treatments: • 1. Control group: 6 days of treatment by daily injection of 1 ml saline. • 2. […] Chemotherapy group: daily injection of 1 ml saline for 5 consecutive days. On day 6 the mice were injected intraperitoneally with cyclophosphamide. • 5. […] On day 6 the mice were injected intraperitoneally with cyclophosphamide. Results

[6] = test system: blood cells; assay: Example 3 in vivo: blood cell parameters after adenosine and/or chemotherapy; conditions: for white blood cell count versus control: Example 3, in words
Experimental: 40 C57BL6/J were divided into 4 groups, each of which was treated (by intraperitoneal injection) according to one of the following protocols: • 1. Control group: 6 days of treatment by daily injection of 1 ml saline. • 2. Chemotherapy group: daily injection of 1 ml saline for 5 consecutive days. On day 6 the mice were injected intraperitoneally with cyclophosphamide. • 3. […] On day 6 the mice were injected intraperitoneally with 1 ml saline. • 4.
The following parameters were evaluated for each group: • i. Red blood cell (RBC) count. • ii. Hemoglobin (HGB) level. • iii. White blood cell count. • iv. Proportion of the three major groups of white blood cells: Lymphocytes (LYM), Monocytes (MID) and Granulocytes (GRAN). Results

[7] = test system: K562 cells; assay: K562 cell proliferation with adenosine and theophylline; type: cell-based, human
Experimental: as §2
Culture conditions were identical to those described above.

[8] = test system: bone marrow cells; assay: Example 2: proliferation capacity of bone marrow from treated mice ([3H]-Thymidine); type: in vivo, C57BL6/J mice; conditions: after 24 hours
Experimental: as §2, §1
Five mice of each group were sacrificed […] and 96 hrs following the treatments and two parameters were evaluated: • 1. complete blood cell count. • 2. Proliferation capacity of bone marrow: bone marrow was aspirated from the femur and pooled for each tested group. The cells were separated, counted and the proliferative capacity was evaluated by the [^3H]-Thymidine incorporation assay as described above.

[9] = test system: B-16-F10 melanoma cells; assay: Example 4 in vivo: B-16-F10 melanoma lung tumor foci; design: species or system C57BL6/J mice; conditions: for No. of foci (melanoma tumor foci in the lung): 18 days, adenosine 1 ml 5 mM daily i.p.
[10] = test system: bone marrow cells; assay: Bone marrow cell proliferation in vitro (adenosine dose response, adenosine receptor antagonists); type: cell-based, C57BL/6J mice; conditions: FIG. 3
Experimental: as §2

[11] = test system: human peripheral blood NK cells; assay: NK activity of peripheral blood cells, 51Cr-release assay, K562 targets; type: cell-based; conditions: 4 μM adenosine, 18 hours preincubation
Experimental: K562 cells were used as the targets (T) and were labeled with 100 μCi of Na2[^51Cr]O4 at 37° for 1 h. After extensive washing to remove the excess Cr, cells (1×10^4) were resuspended and mixed with the effector cells at the E:T ratio of […] in a volume of 200 μl using triplicate assays. After 4 h of incubation at 37° C. in 5% CO2, plates were centrifuged, and the supernatants were counted in a gamma counter (LKB). […] Spontaneous release was below 8% of the maximal release throughout this experiment.

[12] = test system: Nb2-11C lymphoma cells; assay: Cell count assay, proliferation of Nb2-11C lymphoma cells; type: cell-based, rat; conditions: adenosine 1-20 μM, 48 hours
Experimental: The Nb2-11C cells were synchronized in the GO/Gl phase prior to cultivation with the CM by transferring the cells to horse serum (Biological Industries, Beit Haemek, Israel) supplemented medium for overnight incubation. […] Cell proliferation was initiated by the addition of Human Growth Hormone (Biotechnology General, Rehovot, Israel) to a final concentration of 2 ng/ml. The cultures were incubated at 37° C. at 5% CO2 and counted in Coulter Counter 48 hours later.

[13] = test system: leukemia, lymphoma and the solid tumor cell lines; assay: [3H]-Thymidine incorporation assay, tumor cell lines; type: cell-based, human, murine; conditions: adenosine 4 μM, FIG. 2
Text: Tumor cell lines from human (K562 myeloid leukemia, Tib-180 erythroleukemia, LNCaP prostate carcinoma and MDA-MB468 breast adenocarcinoma), and murine (Yac lymphoma, B-16 melanoma) were used and were purchased from the American Type Tissue Culture Collection, Rockville. Nb2 11c rat lymphoma cells (Pines et al.^(19), were also used. The cells were routinely maintained in RPM medium containing 10% fetal calf serum. Twice a week the cells were transferred to a freshly prepared medium.
as §2

[14] = 5 μM adenosine group, daily i.p. 6 days
[15] = adenosine where given 10 μM, cyclophosphamide where given on day 6

SMILES	WBC count ([3]; 24 hours after treatment)	WBC count ([3]; 96 hours after treatment)	GRAN [5, 15] [%]	WBC [5, 15] [count × 10^3/I]	white blood cell count versus control [6]	% GRAN (granulocytes, % out of the number of white blood cells) ([6]; mean±S.E.) [%]	% LYM (lymphocytes, % out of the number of white blood cells) ([6]; mean±S.E.) [%]	% MID (monocytes, % out of the number of white blood cells) ([6]; mean±S.E.) [%]	Bone Marrow Cell Proliferation [8] [CPM]	No. of foci (melanoma tumor foci in the lung) [9]	other results
Nc1ncnc2c1ncn2[C@@H]1O[C@H](CO)[C@@H](O)[C@H]1O [adenosine]	9.37 ± 0.26 × 10^6/ml	6.8 ± 0.73 × 10^6/ml	10.76	7.56	boosted to levels above control	21.03 ± 2.75	65.57 ± 3.35	13.4 ± 0.70	1480.0 ± 68.5	6.11 ± 2.74	production of IL-12 in the presence of SAC mitogen ([1]; 18 hours, FIG. 7): stimulated the production of IL-12; stimulation of IL-12 production without mitogen ([1]; no mitogen): 19%; NK activity of splenocytes, lysis of Yac target cells [2]: more potent in lysing the Yac target cells; proliferation of the three tested normal cells [4]: stimulated the proliferation; GRAN [5, 14]: 9.00%; WBC [5, 14]: 9.50 count × 10^3/I; HGB (hemoglobin count) ([6]; mouse, in vivo): 14.03 ± 0.20 gram/100 ml; K562 tumor cell proliferation ([7]; adenosine 4 μM, FIG. 4): inhibited tumor cell proliferation; tumor load (tumor foci in the lungs) ([9]; oral 0.5 ml of 10 μM adenosine, about 54 μg/kg, with chemotherapeutic drug, FIG. 6): synergized with the chemotherapeutic drug to reduce the tumor load; concentration of peak stimulatory activity on bone marrow cell proliferation [10]: about 10 μM; stimulation of NK activity [11]: 32%; growth of Nb2-11c rat lymphoma cells (cell count) [12]: markedly inhibited; proliferation of leukemia, lymphoma and solid tumor cell lines [13]: induced proliferation inhibition
O=P1(N(CCCl)CCCl)NCCCO1 (centres unmarked) [cyclophosphamide]	3.8 ± 0.18 × 10^6/ml	3.62 ± 0.17 × 10^6/ml	7.70	5.00	caused a reduction in the amount of white blood cells	10.28 ± 1.59	81.94 ± 2.49	7.78 ± 0.92	434.5 ± 52.2	4.16 ± 1.42	HGB (hemoglobin count) ([6]; mean±S.E.): 14.88 ± 8.32 gram/100 ml
Cn1c(=O)c2[nH]cnc2n(C)c1=O [theophylline, Theophylline]											effect on the inhibitory effect of adenosine on tumor cell proliferation ([7]; theophylline 0.1 μM with 4 μM adenosine, K562): this inhibitory effect was neutralized
